target: T1, NLRP3 inflammasomes (Homo sapiens, UniProt Q96P20); assay: THP-1 pyroptosis test (cell pyroptosis test); type: cell-based; settings: THP-1 cells differentiated with PMA, LPS stimulation, 10 μM nigericin, drug 0.001-10 μM, MTT absorbance 562 nm
T1 construct: endogenous in cells; host or cells: THP-1 human monocytic cells, PMA-differentiated, LPS-primed, nigericin-stimulated
Experimental: In vitro activity screening was performed on small molecule compounds targeting inhibition on NLRP3 inflammasomes using THP-1 human monocytic cells (THP-1). THP-1 can be induced to differentiate into macrophages by phorbol ester (PMA), and the macrophages M1 can be induced to polarize by lipopolysaccharide (LPS) to release cytokines such as TNF-α, and IL-6, so as to establish a typical inflammatory model.
THP-1 cells in a logarithmic growth phase were collected to prepare a 1×10^6 cells/mL cell suspension, PMA was added to achieve a final concentration of 300 ng/mL in the cell suspension, then 1×10^5 cells were inoculated to each well of a 96-well plate, and the cells were cultured in a 37° C., 5% CO2 cell incubator for 24 hours and induced to differentiate into macrophages.
The next day, LPS was added to stimulate and induce the cells to produce an inflammatory model. […] In the 200 μL system of the 96-well plate, the final concentration of each drug was 0.001-10 μM, and the final concentration of the nigericin was 10 μM.
Cell apoptosis protection rate=[(X−C0)/(C−C0)]×100%
wherein, C, C0 and X represent average absorbance values of the normal cell group, the blank control group, and the drug treatment group, respectively. Finally, cell survival curves were fitted by Graphpad Prism 5.0 software and EC50 values of the compounds to be tested in inhibiting pyroptosis caused by NLRP3 inflammasomes were calculated.

T1 sequence (Q96P20 whole entry): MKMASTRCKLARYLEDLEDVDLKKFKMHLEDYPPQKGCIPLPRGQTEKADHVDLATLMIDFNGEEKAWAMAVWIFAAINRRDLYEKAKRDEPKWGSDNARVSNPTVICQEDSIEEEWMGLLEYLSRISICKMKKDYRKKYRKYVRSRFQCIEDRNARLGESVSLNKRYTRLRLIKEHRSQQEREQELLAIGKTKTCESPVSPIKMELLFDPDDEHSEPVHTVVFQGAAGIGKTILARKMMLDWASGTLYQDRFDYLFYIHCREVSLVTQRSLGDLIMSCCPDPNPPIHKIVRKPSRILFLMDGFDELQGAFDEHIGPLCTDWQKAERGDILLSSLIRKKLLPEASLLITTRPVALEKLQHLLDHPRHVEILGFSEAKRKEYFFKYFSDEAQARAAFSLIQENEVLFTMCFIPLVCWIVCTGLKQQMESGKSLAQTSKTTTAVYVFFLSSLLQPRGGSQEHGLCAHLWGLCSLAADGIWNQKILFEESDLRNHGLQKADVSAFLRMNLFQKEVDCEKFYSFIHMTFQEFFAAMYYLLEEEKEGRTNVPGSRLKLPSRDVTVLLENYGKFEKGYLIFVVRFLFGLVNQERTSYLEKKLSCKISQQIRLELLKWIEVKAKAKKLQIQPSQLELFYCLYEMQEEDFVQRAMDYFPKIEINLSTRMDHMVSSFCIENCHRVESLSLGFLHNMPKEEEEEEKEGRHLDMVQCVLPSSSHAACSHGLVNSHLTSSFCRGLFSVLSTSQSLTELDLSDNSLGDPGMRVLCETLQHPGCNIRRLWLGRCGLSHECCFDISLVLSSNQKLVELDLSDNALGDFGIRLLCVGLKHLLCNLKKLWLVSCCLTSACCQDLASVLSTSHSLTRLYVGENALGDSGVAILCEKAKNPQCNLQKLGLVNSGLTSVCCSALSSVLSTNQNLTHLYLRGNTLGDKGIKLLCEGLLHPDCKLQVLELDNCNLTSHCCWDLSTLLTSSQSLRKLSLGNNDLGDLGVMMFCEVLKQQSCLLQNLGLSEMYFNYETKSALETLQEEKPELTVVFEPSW

Structure (SMILES) | EC50 [nM]
Cn1cnc2c(-c3ccc(C(F)(F)F)cc3O)nnc(NCCN3CCOCC3)c21 [Compound 77] | > 1000
CN1CCC[C@@H](Nc2nnc(-c3sccc3O)c3c2ncn3C)C1 [Compound 83] | > 1000
CN1CCC[C@@H](Nc2nnc(-c3cc(F)ccc3O)c3ccccc23)C1 [Compound 46, (R)-4-fluoro-2-(4-((1-methylpiperidin-3-yl)amino)phthalazin-1-yl)phenol] | 20 to 100
CN1CC(Nc2nnc(-c3ccc(C(F)(F)F)cc3O)c3ncn(C)c23)CCC1=O (centres unmarked) [Compound 81] | > 1000
Cc1cnc2c(N[C@@H]3CCCN(C)C3)nnc(-c3ccccc3O)c2c1 [Compound 56, (R)-2-(3-methyl-8-((1-methylpiperidin-3-yl)amino)pyridino[2,3-d]pyridazin-5-yl)phenol] | < 20
CN1CCC[C@@H](Nc2nnc(-c3ccc(C(F)(F)F)cc3O)c3c2ncn3C)C1 [Compound 37, (R)-2-(1-methyl-4-((1-methylpiperidin-3-yl)amino)-1H-imidazo[4,5-d]pyridazin-7-yl)-5-(trifluoromethyl)phenol] | < 20
Cc1nc2c(N[C@@H]3CCCN(C)C3)nnc(-c3ccc(C(F)(F)F)cc3O)c2n1C [Compound 57] | < 20
CN1CCC(Nc2nnc(-c3ccc(F)cc3O)c3c2cnn3C)CC1 [Compound 70] | > 1000
COc1ccc2c(N[C@@H]3CCCN(C)C3)nnc(-c3ccc(C(F)(F)F)cc3O)c2c1 [Compound 5, (R)-2-(7-methoxy-4-((1-methylpiperidin-3-yl)amino)phthalazin-1-yl)-5-(trifluoromethyl)phenol] | < 20
Cc1ccc(-c2nnc(N[C@@H]3CCCN(C)C3)c3ccccc23)c(O)c1 [Compound 40, (R)-5-methyl-2-(4-((1-methylpiperidin-3-yl)amino)phthalazin-1-yl)phenol] | < 20
Cc1ccc(-c2nnc(N[C@@H]3CCCN(C)C3)c3c2cnn3C)c(O)c1 [Compound 64] | < 20
CN1CC[C@@H](Nc2nnc(-c3ccc(C(F)(F)F)cc3O)c3ccccc23)C1 [Compound 24, (R)-2-(4-((1-methylpyrrolidin-3-yl)amino)phthalazin-1-yl)-5-(trifluoromethyl)phenol] | < 20
COc1ccc2c(-c3ccc(C(F)(F)F)cc3O)nnc(N[C@@H]3CCCN(C)C3)c2c1 [Compound 6, (R)-2-(6-methoxy-4-((1-methylpiperidin-3-yl)amino)phthalazin-1-yl)-5-(trifluoromethyl)phenol] | < 20
CN1CC(Nc2nnc(-c3ccc(C(F)(F)F)cc3O)c3cnn(C)c23)CCC1=O (centres unmarked) [Compound 67] | 100 to 500
Cn1ncc2c(NCCN3CCOCC3)nnc(-c3ccc(C(F)(F)F)cc3O)c21 [Compound 73] | 500 to 1000
Cn1cnc2c(N[C@H]3CCc4ncccc43)nnc(-c3ccc(C(F)(F)F)cc3O)c21 [Compound 78] | > 1000
Cc1ccc2c(N[C@@H]3CCCN(C)C3)nnc(-c3ccc(C(F)(F)F)cc3O)c2n1 [Compound 53, (R)-2-(2-methyl-5-((1-methylpiperidin-3-yl)amino)pyridino[2,3-d]pyridazin-8-yl)-5-(trifluoromethyl)phenol] | 100 to 500
CN1CCC(Nc2nnc(-c3ccc(F)cc3O)c3cnn(C)c23)CC1 [Compound 69] | > 1000
Cc1ccc2c(-c3ccc(C(F)(F)F)cc3O)nnc(N[C@@H]3CCCN(C)C3)c2n1 [Compound 52, (R)-2-(2-methyl-8-((1-methylpiperidin-3-yl)amino)pyridino[2,3-d]pyridazin-5-yl)-5-(trifluoromethyl)phenol] | < 20

Structure (SMILES) | EC50 [nM]
CN(C)[C@H]1CC[C@H](Nc2nnc(-c3ccc(C(F)(F)F)cc3O)c3ccccc23)CC1 [Compound 18] | 500 to 1000
Cn1cnc2c(O[C@@H]3CCCN(CC(F)(F)F)C3)nnc(-c3ccc(C(F)(F)F)cc3O)c21 [Compound 84] | > 1000
CCCCNc1nnc(-c2ccc(C(F)(F)F)cc2O)c2ccccc12 [Compound 11, 2-(4-(butylamino)phthalazin-1-yl)-5-(trifluoromethyl)phenol] | > 1000
CN1CCC[C@@H]1CNc1nnc(-c2ccc(C(F)(F)F)cc2O)c2ccccc12 [Compound 26] | 500 to 1000
CN1CCC[C@@H](Nc2nnc(-c3ccc(C(F)(F)F)cc3O)c3c2cnn3C)C1 [Compound 63, (R)-2-(1-methyl-4-((1-methylpiperidin-3-yl)amino)-1H-pyrazolo[3,4-d]pyridazin-7-yl)-5-(trifluoromethyl)phenol] | < 20
CCc1cnc2c(N[C@@H]3CCCN(C)C3)nnc(-c3ccc(C(F)(F)F)cc3O)c2c1 [Compound 50, (R)-2-(3-ethyl-8-((1-methylpiperidin-3-yl)amino)pyridino[2,3-d]pyridazin-5-yl)-5-(trifluoromethyl)phenol] | < 20
Cc1ccc(-c2nnc(N[C@@H]3CCCN(C)C3)c3ncc(C)cc23)c(O)c1 [Compound 60, 5-methyl-2-(3-methyl-8-{[(3R)-1-methylpiperidin-3-yl]amino}pyridino[2,3-d]pyridazin-5-yl)phenol] | < 20
Oc1cc(C(F)(F)F)ccc1-c1nnc(N[C@@H]2CCCNC2)c2ccccc12 [Compound 22, (R)-2-(4-(piperidin-3-ylamino)phthalazin-1-yl)-5-(trifluoromethyl)phenol] | < 20
CN1CCC[C@@H](Nc2nnc(-c3ccc(OC(F)(F)F)cc3O)c3ccccc23)C1 [Compound 41, (R)-2-(4-((1-methylpiperidin-3-yl)amino)phthalazin-1-yl)-5-(trifluoromethoxy)phenol] | < 20
Cc1cnc2c(N[C@@H]3CCCN(C)C3)nnc(-c3ccc(OC(F)(F)F)cc3O)c2c1 [Compound 61, 2-(3-methyl-8-{[(3R)-1-methylpiperidin-3-yl]amino}pyridino[2,3-d]pyridazin-5-yl)-5-(trifluoromethoxy)phenol] | < 20
Cn1cnc2c(-c3ccc(C(F)(F)F)cc3O)nnc(NCC3CCOCC3)c21 [Compound 80] | > 1000
Oc1cc(C(F)(F)F)ccc1-c1nnc(N[C@@H]2CCc3ncccc32)c2ccccc12 [Compound 29, (R)-2-(4-((6,7-dihydro-5H-cyclopenta[b]pyridin-5-yl)amino)phthalazin-1-yl)-5-(trifluoromethyl)phenol] | 20 to 100
CN1CCC[C@@H](Oc2nnc(-c3ccc(C(F)(F)F)cc3O)c3c2ncn3C)C1 [Compound 86] | > 1000
CN1CCC[C@@H](Nc2nnc(-c3ccc(C(F)(F)F)cc3O)c3ncn(C)c23)C1 [Compound 36, (R)-2-(1-methyl-7-((1-methylpiperidin-3-yl)amino)-1H-imidazo[4,5-d]pyridazin-4-yl)-5-(trifluoromethyl)phenol] | 500 to 1000
Cc1ccc(-c2nnc(NCCN3CCOCC3)c3c2cnn3C)c(O)c1 [Compound 74] | > 1000
CN1CCC[C@@H](Nc2nnc(-c3ccc(C(F)(F)F)cc3O)c3c2nc(C2CC2)n3C)C1 [Compound 59] | < 20
CN1CCC[C@@H](Nc2nnc(-c3ccc(C(F)(F)F)cc3O)c3ccncc23)C1 [Compound 17] | < 20
C[C@H](Nc1nnc(-c2ccc(C(F)(F)F)cc2O)c2ccccc12)c1ccccc1 [Compound 8, (S)-2-(4-((1-phenylethyl)amino)phthalazin-1-yl)-5-(trifluoromethyl)phenol] | > 1000
CN1CCC[C@@H](Nc2nnc(-c3ccccc3O)c3ccccc23)C1 [Compound 31, (R)-2-(4-((1-methylpiperidin-3-yl)amino)phthalazin-1-yl)phenol] | 500 to 1000
